According to article PMC8904520, “Characterization of a small-molecule inhibitor targeting NEMO/IKKβ to suppress colorectal cancer growth” (Signal Transduction and Targeted Therapy, 2022):
Values joined by “and” are separate entries in the source; they are usually repeats but may differ in a detail not shown here. Identical values can stand only once. Like-named read-outs stand apart in the source and are kept apart here.

Tests used:
[1] = target: T1, NEMO/IKKβ complex (MBP-IKKβ (701–745) / GST-NEMO (1–196)) (Homo sapiens, UniProt Q9Y6K9); assay: SPR competition assay of NEMO/IKKβ binding
T1 construct: made in house; host or cells: E. coli BL21(DE3)
T1 sequence (Q9Y6K9 1-196, one chain of several): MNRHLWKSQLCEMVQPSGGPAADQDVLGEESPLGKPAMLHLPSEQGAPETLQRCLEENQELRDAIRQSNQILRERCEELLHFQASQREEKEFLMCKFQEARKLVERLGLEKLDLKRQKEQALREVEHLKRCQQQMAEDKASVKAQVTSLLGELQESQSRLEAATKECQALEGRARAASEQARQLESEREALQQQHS
Description: MBP-IKKβ was immobilized on the surface of the CM5 chip using the amine-coupling approach at a flow rate of 10 μL/min in 10 mM sodium acetate buffer (pH 5.0). The sensor surface was activated with a 7 min injection of a mixture comprising 50 mM N-hydroxysuccinimide (NHS) and 200 mM 1-ethyl-3-(3- dimethylaminopropyl) carbodiimide (EDC). Then, 33 μg/mL of IKKβ was injected to reach the target level of 500 RU and the surface was blocked with 1 M ethanolamine, pH 8.5. A series of concentrations of NEMO or SHK were injected into the flow system and analyzed for 90 or 120 s, followed by dissociation for 90 or 600 s. All binding analyses was performed in phosphate-buffered saline (PBS, pH 7.4) with 0.05% (v/v) Tween-20 at 25 °C. Prior to analysis, double reference subtractions were made to eliminate bulk refractive index changes, injection noise, and data drift. The binding affinity was determined by fitting to a Langmuir 1:1 binding model in the Biacore Evaluation software (GE Healthcare).
According to the instructions from GE, an anti-GST antibody was immobilized onto the CM5 chip surface. The sensor surface was activated with NHS and EDC, after which 15 μg/mL of anti-GST antibody was injected for 420 s and the surface was blocked with 1 M ethanolamine, pH 8.5. […] For each analyte, 50 μg/mL of GST-G was captured for 60 s and 10 mM glycine-HCl (pH 2.1) was used to regenerate the surface. MBP-B was analyzed with 120 s injection and 120 s dissociation. A series of SHK concentrations was analyzed with 90 s injection and 90 s dissociation.
For the competition assay, we tried two methods with MBP-IKKβ and GST-NEMO immobilized separately. Mixtures including series concentrations of SHK and 1 μM GST-NEMO were tested on MBP-IKKβ-immobilized surface; while other mixtures including series concentrations of SHK and 0.5 μM MBP-IKKβ were tested on GST-NEMO-captured surface. […] By recording the binding responses at 120 s, the inhibition effects of SHK were calculated to determine the IC50.

[2] = target: T2, NEMO/IKKβ interaction (GST-NEMO1–196 / biotinylated IKKβ peptide) (Homo sapiens, UniProt Q9Y6K9); assay: FRET assay of NEMO/IKKβ binding; details: 10 nM GST-NEMO1–196, 200 nM biotinylated IKKβ peptide, read-out: IC50 for impairing NEMO/IKKβ interaction
T2 construct: made in house; host or cells: E. coli BL21(DE3) (GST-NEMO)
T2 sequence (Q9Y6K9 1-196): as the sequence (Q9Y6K9 1-196, one chain of several) above
Description: A FRET assay was used to detect the effects of SHK on NEMO/IKKβ binding. 10 nM GST-NEMO1–196 was bound to 200 nM biotinylated IKKβ peptide in binding buffer (50 Mm Tris-HCl, 150 mM NaCl, and 1x cocktail, pH 7.4), and increasing amounts of SHK were titrated into the mixture, incubated for 30 min at room temperature. The detection agent (50 nM streptavidin-conjugated APC and 10 nM LANCE^TM Europium-W1024 labeled anti-GST, Perkin Elmer) was incubated for 30 min at room temperature, and the FRET signal was read on a multifunctional microplate reader (BioTek Synergy NEO).

[3] = tested on: colorectal cancer cells (LoVo, RKO, SW620, HCT15, HCT116); assay: CCK-8 cell viability assay, colorectal cancer cells; assay type: cell-based, human; details: 48 h
Description: Cell viability was determined using the CCK-8 assay. Briefly, 5×10³ cells were seeded into 96-well culture plates, allowed to adhere for overnight, and then changed to fresh medium containing various concentrations of SHK (0, 0.5, 1, 2 and 5 µM) dissolved in DMSO (final concentration, 0.1%). After incubation for 48 h, the CCK-8 reagent was added, and the absorbance was measured at 450 nm using an EnSpire® Multimode Plate Reader (Perkin Elmer, USA). The cell viability in the vehicle control groups was defined as 100%. Each assay was carried out in triplicate.

CC(C)=CC[C@@H](O)C1=CC(=O)c2c(O)ccc(O)c2C1=O [SHK, Shikonin]
IC50 ([1]; IC50 for impairing binding of GST-NEMO (1–196) to MBP-IKKβ (701–745), MBP-IKKβ immobilized, SHK pre-incubated with 1 μM GST-NEMO for 30 min): 176 ± 26.4 nM
IC50 ([1]; IC50 for inhibiting binding of MBP-IKKβ (701–745) to GST-NEMO (1–196), GST-NEMO immobilized, SHK pre-incubated with 0.5 μM MBP-IKKβ for 30 min): 171 ± 35.6 nM
IC50 ([1]; summary value as quoted in abstract, introduction, discussion, read-out: IC50 for destabilizing / inhibiting NEMO/IKKβ complex formation): 174 nM and ~170 nM
IC50 [2]: 231 ± 9.39 nM
IC50 ([3]; Homo sapiens, CCK-8, range over cell lines, read-out: IC50 for inhibition of proliferation in colorectal cancer cells): 600 to 2500 nM
growth inhibition of cancer cell lines ([3]; LoVo, RKO, SW620, HCT15, HCT116): dose-dependent growth inhibition
